From patent US6660741B2, “Asymmetric synthesis of (S,S,R)-(-)-actinonin and its analogs and uses therefor” (Sloan-Kettering Institute for Cancer Research, priority 2001, dated 2003)
Where two headings read alike, the source gives them in different places.

Columns and labels:
[1] = test system: AKR leukemia; settings: cited from earlier work
[2] = test system: SK-LC-8; assay: XTT cytotoxicity assay, 5-day culture, SK-LC-8; format: cell-based; settings: Homo sapiens, 120 h, SK-LC-8, NSCLC-AdCa, 5 days, read-out: IC50 (μM ± SEM)
Protocol: (§1) Actinonin was assayed for cytotoxity in human ovarian carcinoma, prostate carcinoma, mammary carcinoma, head and neck squamous cell carcinoma (HNSSC), non-small-cell-lung-cancer adenocarcinoma (NSCLC-AdCa), and non-small-cell-lung-cancer squamous cells (NSCLC-SSC) (15). Actinonin was also tested against acute mylegenous leukemia (AML) cells.

[3] = test system: MDA-MB468; assay: XTT cytotoxicity assay, 5-day culture, MDA-MB468; format: cell-based; settings: Homo sapiens, MDA-MB-468, 120 h, MDA-MB468, Mammary Ca, 5 days, read-out: IC50 (μM ± SEM)
Protocol: as §1

[4] = test system: HL-60; assay: XTT cytotoxicity assay, 5-day culture, HL-60; format: cell-based; settings: Homo sapiens, 120 h, HL-60, PML, 5 days, read-out: IC50 (μM ± SEM)
Protocol: as §1

[5] = test system: A2780; assay: XTT cytotoxicity assay, 5-day culture, A2780; format: cell-based; settings: Homo sapiens, 120 h, A2780, Ovarian Ca, 5 days, read-out: IC50 (μM ± SEM)
Protocol: as §1

[6] = test system: HL60 (acute myeloid leukemia, CD13 positive) cells; assay: Inhibition of tritiated thymidine incorporation, 5 day, HL60; format: cell-based; settings: Homo sapiens, HL-60, 120 h, HL60, 5 days
Protocol: (§2) Actinonin was purchased from Sigma (St. Louis, Mo.). Biotinylated-Actinonin and all analogs were synthesized. Actinonin stock solution was 5 mg/ml in 10% ethanol. Biotinylated-actinonin and all other analogs were diluted in 10% DMSO to give stock solutions in the range of 1-20 mg/ml.
(§3) Daudi (B lineage Burkitt's lymphoma, CD13 negative) and HL60 (acute myeloid leukemia, CD13 positive) cells were maintained in culture using RPMI 1640 supplemented with 10% heat-inactivated FBS (Omega Scientific, Inc., Tarzana, Calif.) and 1% L-glutamine (Gibco/Invitrogen, Carlsbad, Calif.) at 37° C. in a humidified atmosphere of 5% CO2. Cell viability was higher than 90%, and cells were free of mycoplasma contamination.
(§4) An aliquot of 200 ul of cells (10,000 cells/well) was washed and incubated at 37° C. in 96-well plates in the presence or absence of actinonin/analogs. Serial dilutions were made in complete media. After 5 days of incubation, 50 ul of 10 uCi/mL tritiated thymidine (PerkinElmer, Boston, Mass.) was added to each well and allowed to incorporate for 5 hours. Plates were frozen at −80° C. overnight and cells were harvested onto filtermats (Wallac, Finland) using a semi-automatic harvester (Skatron, Sterling, Va.). Filtermats were counted in a 1205 Betaplate™ liquid scintillation counter (Wallac, Finland). The reference numbers refer to those analogs disclosed in Example 6. Compounds 35, 42, 48, 52, 53, and 56 are effective at inhibiting cell growth.

[7] = test system: SK-BRIII; assay: XTT cytotoxicity assay, 5-day culture, SK-BRIII; format: cell-based; settings: Homo sapiens, 120 h, Mammary Ca, 5 days, read-out: IC50 (μM ± SEM)
Protocol: as §1

[8] = test system: PC-3; assay: XTT cytotoxicity assay, 5-day culture, PC-3; format: cell-based; settings: Homo sapiens, 120 h, PC-3, Prostate Ca, 5 days, read-out: IC50 (μM ± SEM)
Protocol: as §1

[9] = test system: SK-LC-16; assay: XTT cytotoxicity assay, 5-day culture, SK-LC-16; format: cell-based; settings: Homo sapiens, 120 h, SK-LC-16, NSCLC-SSC, 5 days, read-out: IC50 (μM ± SEM)
Protocol: as §1

[10] = test system: Daudi (B lineage Burkitt's lymphoma, CD13 negative) cells; assay: Inhibition of tritiated thymidine incorporation, 5 day, Daudi; format: cell-based; settings: Homo sapiens, 120 h, 5 days
Protocol: as §2, §3, §4

[11] = test system: TSU-PR^1; assay: XTT cytotoxicity assay, 5-day culture, TSU-PR1; format: cell-based; settings: Homo sapiens, 120 h, TSU-PR1, Prostate Ca, 5 days, read-out: IC50 (μM ± SEM)
Protocol: as §1

[12] = test system: all the cell lines tested; assay: Cytotoxicity of actinonin, summary over all cell lines tested; format: cell-based, human; settings: in the μM range
Protocol: as §1

[13] = test system: DU-145; assay: XTT cytotoxicity assay, 5-day culture, DU-145; format: cell-based; settings: Homo sapiens, 120 h, DU-145, Prostate Ca, 5 days, read-out: IC50 (μM ± SEM)
Protocol: as §1

[14] = test system: HT1080; assay: XTT cytotoxicity assay, 5-day culture, HT1080; format: cell-based; settings: Homo sapiens, HT-1080, 120 h, HT1080, HNSSC, 5 days, read-out: IC50 (μM ± SEM)
Protocol: as §1

[15] = test system: tumor cell lines; settings: cited from earlier work
[16] = test system: CWR22 human prostate tumor; settings: for Change in tumor Vol. (mm^3): initial 45 mm^3; for Ave. Tumor Diameter (mm ± SEM): initial tumor diameter 4.4
Protocol: Actinonin was also evaluated against the CWR22 human prostate tumor xenografted in nude mice (15).

[17] = test system: human leukemia and lymphoma cells; settings: cited from earlier work

CCCCC[C@H](CC(=O)NO)C(=O)N[C@H](C(=O)N1CCC[C@H]1CO)C(C)C [Actinonin, (S,S,R)-(−)-Actinonin]
treatment of AKR leukemia ([1]; AKR mice): treats AKR leukemia | toxicity in AKR mice ([1]; mouse, in vivo): minimal toxicity | IC50 [2]: 14 ± 2 µM | IC50 [3]: 7.1 ± 1 µM | IC50 [4]: 6.8 ± 1 µM | IC50 [5]: 4.8 ± 1 µM | IC50 ([6]; read-out: HL60 IC50 (uM), 5 day thymidine incorporation): 10.6 µM | IC50 ([6]; read-out: HL60 IC50 (ug/mL), 5 day thymidine incorporation): 4.1 µg/mL | IC50 [7]: 7.9 ± 1 µM | IC50 [8]: 10 ± 1 µM | IC50 [9]: 12 ± 2 µM | IC50 ([10]; read-out: Daudi IC50 (uM), 5 day thymidine incorporation): 6.7 µM | IC50 ([10]; read-out: Daudi IC50 (ug/mL), 5 day thymidine incorporation): 2.6 µg/mL | IC50 [11]: 9.1 ± 1.5 µM | cytotoxicity against all the cell lines tested [12]: remarkably cytotoxic | IC50 [13]: 17 µM | IC50 [14]: 11 ± 2 µM | cytotoxicity towards tumor cell lines in vitro [15]: exhibits cytotoxicity | Inhibition T/C % ([16]; 300 mg/kg ip): 97% | Change in tumor Vol. (mm^3) ([16]; 300 mg/kg ip): +36 mm^3 | Ave. Tumor Diameter (mm ± SEM) ([16]; 300 mg/kg ip): 5.4 ± 1 mm | Inhibition T/C % ([16]; 600 mg/kg ip): 88% | Change in tumor Vol. (mm^3) ([16]; 600 mg/kg ip): +142 mm^3 | Ave. Tumor Diameter (mm ± SEM) ([16]; 600 mg/kg ip): 7.1 ± 2 mm | tumor growth inhibition ([16]; at a dose slightly below the maximum tolerated dose (MTD) for the mouse): excellent tumor growth inhibition | cell cycle arrest and apoptosis [17]: induces GI arrest and apoptosis
